# Target: Human immunodeficiency virus type 1 protease (Human immunodeficiency virus 1, UniProt Q72874)
# Assay: binding affinity towards HIV-1 Protease enzyme
row,Ki [nM],Structure (SMILES)
1,800,CC[C@H](C)[C@@H]1NC(=O)[C@@H](NC(=O)[C@@H]2Cc3ccc(cc3)OCCCCC(=O)N[C@@H](C(C)C)C(=O)N2)Cc2ccc(cc2)OCCCNC1=O
2,4,CC[C@H](C)[C@@H]1NC(=O)[C@@H](C(N)C[C@@H](O)C(Cc2ccccc2)NC(=O)OC(C)(C)C)Cc2ccc(cc2)OCCCNC1=O (stereo partly drawn)
3,60000,CC[C@@H](C)[C@H](NC(=O)[C@H](Cc1ccccc1)NC(=O)[C@H](Cc1ccccc1)NC(=O)[C@@H](NC(=O)[C@H](CC(C)C)NC(C)=O)C(C)C)C(=O)N[C@H](C(N)=O)C(C)C
4,3,CC[C@H](C)[C@@H]1NC(=O)[C@@H](C(N)C[C@@H](O)[C@@H]2Cc3ccc(cc3)OCCCCC(=O)N[C@@H](C(C)C)C(=O)N2)Cc2ccc(cc2)OCCCNC1=O (stereo partly drawn)
5,1,CC(C)C[C@H](CC(=O)NO)C(=O)N[C@H]1Cc2cn(c3ccccc23)CCCCCCNC1=O
6,12,CC[C@H](C)[C@H](NC(=O)[C@H](Cc1ccccc1)NC[C@H](O)[C@@H]1Cc2ccc(cc2)OCCCC(=O)N[C@@H](CC(N)=O)C(=O)N1)C(=O)N[C@H](C(N)=O)C(C)C
7,10,N=C(N)NCCC[C@H]1NC(=O)[C@@H]2CCCN2C(=O)[C@@H](NC=O)CNC(=O)/C=C/C(Cc2ccc(O)cc2)NC(=O)[C@@H](Cc2ccccc2)NC(=O)C1=O (stereo partly drawn)

row,Structure (SMILES),Ki [nM]
1,CC(C)C[C@@H](NC(=O)[C@H](O)COS(=O)(=O)O)C(=O)N[C@@H]1C(=O)N[C@@H](CCCNC(=N)N)C(=O)N[C@H]2CC[C@H](O)N(C2=O)[C@@H](CC(C)C)C(=O)N(C)[C@H](Cc2ccc(O)cc2)C(=O)N[C@H](C(C)C)C(=O)O[C@@H]1C [PROTEOLYTIC ENZYME INHIBITOR],1
